US11141411B2, “Methods of treating neurological, metabolic, and other disorders using enantiopure deuterium-enriched pioglitazone” (Poxel SA, priority 2014, dated 2021)

Legend:
db/db mice = assay: db/db mouse model of type II diabetes, 10-day daily oral dosing; format: in vivo; conditions: daily oral gavage 10 days, h-rac-pio 30 mg/kg, vs. vehicle; for decrease of inflammatory biomarker IL-6 / decrease of inflammatory biomarker TNF-α: d-R-pio 20 mg/kg; for adiponectin: d-S-pio 20 mg/kg
Experimental: Body weights were measured throughout the study. Non-fasting blood glucose (10 μL by tail snip) was measured 4 hours prior to first dose, and animals were sorted and assigned to groups based on this measure. […] A terminal blood sample was collected for determination of serum levels of cholesterol, triglycerides, free fatty acids, adiponectin, serum amyloid A, and cytokines IL-6, TNF-α, and MCP-1, using standard analytical methods. Quantitative results were analyzed by statistical methods using, as appropriate, one- or two-way ANOVA or Kruskal-Wallis tests for differences followed by Sidak's, Dunnett's, or Dunn's post-test to determine differences vs. vehicle-treated control animals. All graphs were generated with GraphPad Prism version 6.0.2 (GraphPad Software, Inc., La Jolla, Calif.).

[1] = Body weight gain in male C57BL/6J mice on a standard diet; format: in vivo, mouse; conditions: twice daily oral gavage 11 days, overall daily dose h-rac-pio 30 mg/kg, d-S-pio 15 mg/kg, d-R-pio 15 mg/kg, vs. vehicle
Experimental: Male C57BL/6J mice (about 28 g body weight) were acclimated singly-housed for one week to a reverse light/dark cycle with free access to water and standard maintenance diet. Animals were then handled daily for one week followed by another 7 days of twice daily dosing with vehicle (0.5% methylcellulose in water) by oral gavage. […] Body weights were measured twice daily, prior to each dosing, to adjust individual dosing volumes to actual body weights.

[2] = Pharmacokinetics in male C57BL/6 mice, oral gavage once a day for 5 days; conditions: day 5, d-S-pio or d-R-pio 15 mg/kg oral gavage daily; for t1/2 d-S: elimination half-life of analyte d-S-pio; for t1/2 h-R: elimination half-life of analyte h-R-pio; for t1/2 h-R / t1/2 h-S: h-rac-pio 30 mg/kg; for t1/2 h-S: elimination half-life of analyte h-S-pio
Experimental: Animals were then euthanized. Plasma was separated by centrifugation and stored at −80° C. until analyzed.
Concentrations were calculated by interpolation on standard curves generated from mouse plasma samples spiked with known concentrations of the pure analytes.

Compound | decrease of inflammatory biomarker IL-6 (db/db mice) | decrease of inflammatory biomarker TNF-α (db/db mice) | adiponectin (db/db mice) | insulin (db/db mice) | percent body weight difference versus day 1 body weight [1] | t1/2 d-S [2] [h] | t1/2 h-R [2] [h] | t1/2 h-S [2] [h]
CCc1ccc(CCOc2ccc(CC3SC(=O)NC3=O)cc2)nc1 (racemic) [h-rac-pio, rac-5-({p-[2-(5-Ethyl-2-pyridyl)ethoxy]phenyl}methyl)-1,3-thiazolidine-2,4-dione] | trending | trending | significantly increased adiponectin | significantly decreased insulin | statistically significant increase in percent body weight difference compared to dosing with vehicle | – | – | –
[2H][C@]1(Cc2ccc(OCCc3ccc(CC)cn3)cc2)SC(=O)NC1=O [d-R-pio, (R)-5-({p-[2-(5-ethyl-2-pyridyl)ethoxy]phenyl}methyl)-(5-^2H)-1,3-thiazolidine-2,4-dione] | trending | trending | – | – | did not increase percent body weight difference over vehicle | 0.8 | 2.5 | 2.5
[2H][C@@]1(Cc2ccc(OCCc3ccc(CC)cn3)cc2)SC(=O)NC1=O [d-S-pio, (S)-5-({p-[2-(5-Ethyl-2-pyridyl)ethoxy]phenyl}methyl)-(5-^2H)-1,3-thiazolidine-2,4-dione] | – | – | significantly increased adiponectin | – | statistically significant increase in percent body weight difference compared to dosing with vehicle | 2.3 | 3.2 | 3.1
